Assay results reported in US11072602B2, “Antidiabetic heterocyclic compounds” (Merck Sharp & Dohme Corp., priority 2016, dated 2021).

Each compound was assayed against T1, human GPR40 (Homo sapiens, UniProt O14842) (assay: Inositol Phosphate Turnover (IP1) Assay 2). Conditions: HEK cells stably expressing human GPR40, 15,000 cells per well, CisBio IP-One kit; read-out: Human IP1 (nM); Inositol Phophate Turnover (IP1) Assay 2 EC50 values.
T1 construct: expressed in transfected cells
Format: cell-based
Method: (§1) Human GPR40 stable cell-lines were generated in HEK cells. The expression plasmids were transfected using lipofectamine (Life Technologies) following manufacturer's instructions. Stable cell-lines were generated following drug selection and single cell cloning.
The assay is performed in 384-well format. HEK cells stably expressing human GPR40 are plated at 15,000 cells per well in growth medium (DMEM/10% fetal calf serum). Cell plates are then incubated 16 hours at 37 degrees in a 5% CO2 incubator.
Measurement of Inositol Phosphate Turnover (IP1) is performed using the CisBio IP-One kit (Part number 62IPAPEB). After the 16 hour incubation, the cells are washed with HEPES buffer and 10 ul of stimulation buffer (prepared as described in the kit) is added to each well. In a separate plate, compounds are diluted in DMSO (400-fold over the final concentration in the assay well) and 25 nl is acoustically transferred to the appropriate well in the assay cell plate. The plates are then incubated for 60 minutes at 37 degrees. 10 ul of detection buffer (also prepared as described in the IP-One kit) is added to each well and the plates are incubated for 60 minutes in the dark. The plates are then read in a Perkin Elmer EnVision or equivalent reader able to measure FRET. Fluorescent ratio of emission at 665 and 620 nm is then converted to IP1 concentration by back calculating from an IP1 standard curve prepared at the time of the assay.

T1 sequence (O14842 whole entry): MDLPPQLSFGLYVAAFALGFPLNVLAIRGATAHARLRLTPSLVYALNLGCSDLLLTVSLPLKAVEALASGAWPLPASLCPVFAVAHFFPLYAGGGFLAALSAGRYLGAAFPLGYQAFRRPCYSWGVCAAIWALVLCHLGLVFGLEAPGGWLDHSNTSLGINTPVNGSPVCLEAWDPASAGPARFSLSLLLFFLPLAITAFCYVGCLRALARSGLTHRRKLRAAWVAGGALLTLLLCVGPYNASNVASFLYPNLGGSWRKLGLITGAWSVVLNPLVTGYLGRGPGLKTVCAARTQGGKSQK

Row | EC50 [nM] | Structure (SMILES)
1 | 156 | C[C@H](C(=O)O)[C@H](c1ccc2c(c1)OC(C1CC3(C1)CN(c1ncccc1C(F)(F)F)C3)CC2)C1CC1 (single isomer, unassigned) [Example 2, (2S,3R)-3-cyclopropyl-2-methyl-3-((R or S)-2-(2-(3-(trifluoromethyl)pyridin-2-yl)-2-azaspiro[3.3]heptan-6-yl)chroman-7-yl)propanoic Acid]

The compounds below were run against T1, human GPR40 (assay: Inositol Phosphate Turnover (IP1) Assay). Conditions: HEK cells stably expressing human GPR40, 7500 cells per well, CisBio IP-One kit.
Format: cell-based
Method: as §1
The assay was performed in 384-well format. HEK cells stably expressing human GPR40 were plated at 7500 cells per well in growth medium (DMEM/10% fetal calf serum). Cell plates were then incubated 16 hours at 37 degrees in a 5% CO2 incubator. Measurement of Inositol Phosphate Turnover (IP1) was performed using the CisBio IP-One kit (Part number 62IPAPEB). After the 16 hour incubation, the growth media was removed by centrifugation using the BlueWasher (AusWasher GUI Ver. v1.0.1.8) Protocol #21-“Light Dry” and 10 ul of stimulation buffer (prepared as described in the kit) was added to each well. In a separate plate, compounds were diluted in DMSO (200-fold over the final concentration in the assay well) and 50 nl was acoustically transferred to the appropriate well in the assay cell plate. The plates were then incubated for 60 minutes at 37 degrees in a 5% CO2 incubator. 10 ul of detection buffer (also prepared as described in the IP-One kit) was added to each well and the plates were incubated at room temperature for 60 minutes in the dark. The plates were then read in a Perkin Elmer EnVision or equivalent reader able to measure FRET. Fluorescent ratio of emission at 665 and 620 nm was then converted to IP1 concentration by back calculating from an IP1 standard curve prepared at the time of the assay. Data was normalized to % activity using a reference compound and EC50s determined using a standard 4-parameter fit.

Row | Structure (SMILES) | EC50 [nM]
2 | C[C@H](C(=O)O)[C@H](c1ccc2c(c1)OC(CC1CCN([C@H](C)c3cc(C(F)(F)F)ccc3C(F)(F)F)CC1)CC2)C1CC1 (single isomer, unassigned) [Example 11, (2S,3R)-3-((S or R)-2-((1-((R)-1-(2,5-bis(trifluoromethyl)phenyl)ethyl)piperidin-4-yl)methyl)chroman-7-yl)-3-cyclopropyl-2-methylpropanoic Acid] | 14.1
3 | C[C@H](C(=O)O)[C@H](c1ccc2c(c1)OC(CC1CCN([C@H](C)c3cc(C(F)(F)F)ccc3C(F)(F)F)CC1)CC2)C1CC1 (single isomer, unassigned) [Example 10, (2S,3R)-3-((R or S)-2-((1-((R)-1-(2,5-bis(trifluoromethyl)phenyl)ethyl)piperidin-4-yl)-methyl)chroman-7-yl)-3-cyclopropyl-2-methylpropanoic Acid] | 29.3
4 | C[C@H](C(=O)O)[C@H](c1ccc2c(c1)OC(C13CCN([C@H](C)c4cc(F)ccc4OC(F)(F)F)C(C1)C3)CC2)C1CC1 (single isomer, unassigned) [Example 43] | 60.6
5 | C[C@H](C(=O)O)[C@H](c1ccc2c(c1)OC(CC1CCN([C@H](C)c3cc(C(F)(F)F)ccc3C(F)(F)F)CC1)CC2)C1CC1 (mixture of isomers) [Example 9, (2S,3R)-3-((RS)-2-((1-((R)-1-(2,5-bis(trifluoromethyl)phenyl)ethyl)piperidin-4-yl)-methyl)chroman-7-yl)-3-cyclopropyl-2-methylpropanoic Acid] | 63.7
6 | C[C@H](C(=O)O)[C@H](c1ccc2c(c1)OC(C1CC3CC1CN3[C@@H](C)c1cc(F)ccc1C(F)(F)F)CC2)C1CC1 (stereo partly drawn) [Example 19, (2S,3R)-3-cyclopropyl-3-(2-((1S,4S)-2-((S)-1-(5-fluoro-2-(trifluoromethyl)phenyl)ethyl)-2-azabicyclo[2.2.1]heptan-5-yl)chroman-7-yl)-2-methyl-propanic acid] | 2.62
7 | C[C@H](C(=O)O)[C@H](c1ccc2c(c1)OC(C1CC3CCC(C1)N3[C@H](C)c1cc(C(F)(F)F)ccc1C(F)(F)F)CC2)C1CC1 (stereo partly drawn) [Example 14, (2S,3R)-3-(2-((1R,5S)-8-((R)-1-(2,5-bis(trifluoro-methyl)phenyl)ethyl)-8-azabicyclo[3.2.1]octan-3-yl)chroman-7-yl)-3-cyclopropyl-2-methyl-propanoic acid] | 11.1
8 | C[C@H](C(=O)O)[C@H](c1ccc2c(c1)OC(C1CC3CCCC(C1)N3[C@H](C)c1cc(C(F)(F)F)ccc1C(F)(F)F)CC2)C1CC1 (mixture of isomers) [Example 32, (2S,3R)-3-((RS)-2-((1R,3RS,5S)-9-((R)-1-(2,5-bis(trifluoromethyl)phenyl)ethyl)-9-azabicyclo[3.3.1]nonan-3-yl)chroman-7-yl)-3-cyclopropyl-2-methylpropanoic Acid] | 171
9 | C[C@H](C(=O)O)[C@H](c1ccc2c(c1)OC(C1CC3C[C@@H]1CN3[C@@H](C)c1cc(F)ccc1C(F)(F)F)CC2)C1CC1 (stereo partly drawn) [Example 38, (2S,3R)-3-cyclopropyl-3-(2-((4S)-2-((S)-1-(5-fluoro-2-(trifluoromethyl)phenyl)ethyl)-2-azabicyclo[2.2.1]heptan-5-yl)chroman-7-yl)-2-methyl-propanoic acid] | 10.6
10 | C[C@H](C(=O)O)[C@H](c1ccc2c(c1)OC(C13CCN([C@H](C)c4cc(F)ccc4OC(F)(F)F)C(C1)C3)CC2)C1CC1 (single isomer, unassigned) [Example 44] | 2.14
11 | C[C@H](C(=O)O)[C@H](c1ccc2c(c1)OC(CC1CCN([C@@H](C)c3cc(C(F)(F)F)ccc3C(F)(F)F)CC1)CC2)C1CC1 (mixture of isomers) [Example 12, (2S,3R)-3-((RS)-2-((1-((S)-1-(2,5-bis(trifluoro-methyl)phenyl)ethyl)piperi-din-4-yl)methyl)-chroman-7-yl)-3-cyclopropyl-2-methyl-propanoic acid] | 22.3

Second part, the compound after the results:

Row | EC50 [nM] | Structure (SMILES)
12 | 32.6 | C[C@H](C(=O)O)[C@H](c1ccc2c(c1)OC(C1[C@@H]3CC[C@@H]1CN([C@@H](C)c1cc(F)ccc1C(F)(F)F)C3)CC2)C1CC1 (single isomer, unassigned) [Example 31, (2S,3R)-3-cyclopropyl-3-((2R or 2S)-2-((1R,5S)-3-((S)-1-(5-fluoro-2-(trifluoromethyl)phenyl)ethyl)-3-azabicyclo[3.2.1]-octan-8-yl)chroman-7-yl)-2-methylpropanoic acid]
13 | 11.2 | C[C@H](C(=O)O)[C@H](c1ccc2c(c1)OC(C1[C@@H]3COC[C@H]1CN([C@@H](C)c1cc(F)ccc1C(F)(F)F)C3)CC2)C1CC1 (single isomer, unassigned) [Example 7]
14 | 67.3 | C[C@H](C(=O)O)[C@H](c1ccc2c(c1)OC(C1[C@@H]3CC[C@@H]1CN([C@@H](C)c1cc(C(F)(F)F)ccc1C(F)(F)F)C3)CC2)C1CC1 (single isomer, unassigned) [Example 25]
15 | 28.7 | C[C@H](C(=O)O)[C@H](c1ccc2c(c1)OC(C1[C@@H]3CC[C@@H]1CN([C@@H](C)c1cc(F)ccc1C(F)(F)F)C3)CC2)C1CC1 (single isomer, unassigned) [Example 28, (2S,3R)-3-cyclopropyl-3-((2R or 2S)-2-((1R,5S)-3-((S)-1-(5-fluoro-2-(trifluoromethyl)phenyl)ethyl)-3-azabicyclo[3.2.1]-octan-8-yl)chroman-7-yl)-2-methylpropanoic acid]
16 | 9.68 | C[C@H](C(=O)O)[C@H](c1ccc2c(c1)OC(C1[C@@H]3CC[C@H]1CN([C@@H](C)c1cc(F)ccc1C(F)(F)F)C3)CC2)C1CC1 (single isomer, unassigned) [Example 26]
17 | 20.3 | C[C@H](C(=O)O)[C@H](c1ccc2c(c1)OC(C1C3COCC1CN([C@H](C)c1cc(C(F)(F)F)ccc1C(F)(F)F)C3)CC2)C1CC1 (stereo partly drawn) [Example 3, (2S,3R)-3-(2-((1R,5S)-7-((R)-1-(2,5-bis(trifluoromethyl)phenyl)ethyl)-3-oxa-7-azabicyclo[3.3.1]nonan-9-yl)chroman-7-yl)-3-cyclopropyl-2-methylpropanoic acid]
18 | 33.8 | C[C@H](C(=O)O)[C@H](c1ccc2c(c1)OC(C1C3COCC1CN([C@@H](C)c1cc(C(F)(F)F)ccc1C(F)(F)F)C3)CC2)C1CC1 (stereo partly drawn) [Example 5, (2S,3R)-3-(2-((1R,5S)-7-((S)-1-(2,5-bis(trifluoro-methyl)phenyl)ethyl)-3-oxa-7-azabicyclo[3.3.1]-nonan-9-yl)chroman-7-yl)-3-cyclopropyl-2-methyl-propanoic acid]
19 | 20.2 | C[C@H](C(=O)O)[C@H](c1ccc2c(c1)OC(C1[C@@H]3CC[C@@H]1CN([C@@H](C)c1cc(F)ccc1C(F)(F)F)C3)CC2)C1CC1 (single isomer, unassigned) [Example 27, (2S,3R)-3-cyclopropyl-3-((2R or 2S)-2-((1R,5S)-3-((S)-1-(5-fluoro-2-(trifluoromethyl)phenyl)ethyl)-3-azabicyclo[3.2.1]-octan-8-yl)chroman-7-yl)-2-methylpropanoic acid]
20 | 45.6 | C[C@H](C(=O)O)[C@H](c1ccc2c(c1)OC(C1[C@@H]3CC[C@H]1CN([C@H](C)c1cc(C(F)(F)F)ccc1C(F)(F)F)C3)CC2)C1CC1 (mixture of isomers) [Example 22, (2S,3R)-3-(2-((1R,5S)-3-((R)-1-(2,5-bis(trifluoromethyl)phenyl)ethyl)-3-azabicyclo[3.2.1]octan-8-yl)chroman-7-yl)-3-cyclopropyl-2-methylpropanoic Acid]
21 | 72.8 | C[C@H](C(=O)O)[C@H](c1ccc2c(c1)OC(C1[C@@H]3CC[C@H]1CN([C@@H](C)c1cc(F)ccc1C(F)(F)F)C3)CC2)C1CC1 (single isomer, unassigned) [Example 29]
22 | 9.66 | C[C@H](C(=O)O)[C@H](c1ccc2c(c1)OC(C1[C@@H]3CC[C@@H]1CN([C@@H](C)c1cc(C(F)(F)F)ccc1C(F)(F)F)C3)CC2)C1CC1 (single isomer, unassigned) [Example 24]
